From US9072770B2, “Aqueous extracts of Anoectochilus spp. kinsenoside and pharmaceutical compositions useful for hepatoprotection” (CHINA MEDICAL UNIVERSITY, priority 2007, dated 2015)
Marks after values point to notes of the source that are not given here.

Tested on: BALB/c normal liver (BNL) cells
Test: Hydrogen peroxide cytotoxicity assay in BNL cells
Type: cell-based, BALB/c mouse
Details: then H2O2 2 hours, control 0.69
Method: BALB/c normal liver (BNL) cells were purchased from Bioresources Collection and Research Center (Hsinchu, Taiwan). Cell lines were grown in DMEM (Dulbecco's modified Eagle's medium) with 50 IU/mL penicillin, 50 μg/mL streptomycin, 50 IU/mL amphotericin B and 10% fetal bovine serum. For cytotoxicity assays, cells (5×10^3 cells/well) were plated into 96-well culture plates and allowed to attach overnight. The medium was replaced with fresh medium (as control) or with various concentrations of AFEW, AFEW-1 or kinsenoside for 16 hours. The cells were then washed with PBS and further treated with various doses of hydrogen peroxide (0.125-4.00 μM) for 2 hours. After H2O2 cytotoxic treatment, the percentage of viable cells was determined using a CellTiter 96 Aqueous Non-Radioactive Cell Proliferation Assay kit (Promega, Madison, Wis., USA). Reagent solution (20 μt) was added to each well and incubated at 37° C. in humidified 5% CO2 for 1 hour. Then, the absorbance was measured at 490 nm using a 96-well plate reader (Multiskan Spectrum, Labsystem, Thermo Electron Corporation, Finland).
Data from in vivo experiments were treated by one-way analysis of variance and Dunnett's test was applied. The significance level was set at p[…]00.05. […]

O=C1C[C@@H](OC2OC(CO)C(O)C(O)C2O)CO1 (stereo partly drawn) [Kinsenoside, 3-(R)-3-β-D-glucopyranosyloxybutanolide]
H2O2 LD50 (95% confidence limits) (pretreatment 20 μg/mL for 16 hours): 0.81 (0.74-0.88)^a μM | H2O2 LD50 (95% confidence limits) (pretreatment 40 μg/mL for 16 hours): 1.17 (1.01-1.36)^a μM
